Results taken from PMC11845477, “Exploring the principles behind antibiotics with limited resistance” (Nature Communications, 2025).

What was measured:
[1] = tested on: A. baumannii ATCC 17978 (SEN) and A. baumannii ATCC BAA-1605 (MDR); test: Frequency-of-resistance (FoR) assay, relative MIC of mutants; type: cell-based, Acinetobacter baumannii
How it was run: (§1)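 Relative MIC is mutant MIC divided by ancestor MIC. Mutants: ten colonies from the highest-concentration plate after ~10^10 MHB-grown cells spent 48 h at 37 °C on antibiotic agar (triplicates, susceptible-range concentrations).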

[2] = tested on: E. coli ATCC 25922 (SEN) and E. coli NCTC13846 (MDR); test: as above; type: cell-based, Escherichia coli
How it was run: as §1

[3] = tested on: K. pneumoniae ATCC 10031 (SEN) and K. pneumoniae ATCC 700603 (MDR); test: microbe, parasite or virus in culture; type: cell-based, Klebsiella pneumoniae
How it was run: (§2)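 Inoculum was 5 × 10^5 cells/mL in cation-adjusted MHB2 (SCH79797 excepted) across 11–16-step dilution series in duplicate. Relative MIC divides evolved-strain MIC by ancestor MIC.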

[4] = tested on: A. baumannii ATCC 17978 (SEN) and A. baumannii ATCC BAA-1605 (MDR); test: microbe, parasite or virus in culture; type: cell-based, Acinetobacter baumannii
How it was run: as §2

[5] = tested on: E. coli ATCC 25922 (SEN) and E. coli NCTC13846 (MDR); test: microbe, parasite or virus in culture; type: cell-based, Escherichia coli
How it was run: as §2

[6] = tested on: P. aeruginosa ATCC BAA-3107 (SEN) and P. aeruginosa LESB58 (MDR); test: microbe, parasite or virus in culture; type: cell-based, Pseudomonas aeruginosa
How it was run: as §2

**Q.** For polymyxin-B, which MIC of evolved line ([1]; Acinetobacter baumannii ATCC 17978 (AB-SEN), evolved line 1) is on record?
**A.** 0.5 µg/mL

**Q.** And the MIC of evolved line ([1]; Acinetobacter baumannii ATCC 17978 (AB-SEN), evolved line 2)?
**A.** 0.5 µg/mL

**Q.** What about the MIC of evolved line ([1]; Acinetobacter baumannii ATCC 17978 (AB-SEN), evolved line 3) of the same substance?
**A.** 0.5 µg/mL

**Q.** And the MIC of evolved line ([1]; Acinetobacter baumannii ATCC BAA 1605 (AB-MDR), evolved line 3)?
**A.** 16 µg/mL

**Q.** What about the MIC of evolved line ([2]; E. coli ATCC 25922 (EC-SEN), evolved line 1) of the same substance?
**A.** 4 µg/mL

**Q.** And the MIC of evolved line ([2]; E. coli ATCC 25922 (EC-SEN), evolved line 2)?
**A.** 1 µg/mL

**Q.** And the MIC of evolved line ([2]; E. coli ATCC 25922 (EC-SEN), evolved line 3)?
**A.** 8 µg/mL

**Q.** And the MIC of evolved line ([2]; E. coli NCTC 13846 (EC-MDR), evolved line 1)?
**A.** 4 µg/mL

**Q.** And the MIC of evolved line ([2]; E. coli NCTC 13846 (EC-MDR), evolved line 2)?
**A.** 4 µg/mL

**Q.** What about the MIC of evolved line ([2]; E. coli NCTC 13846 (EC-MDR), evolved line 3) of the same substance?
**A.** 4 µg/mL

**Q.** What about the MIC of ancestor ([3]; Klebsiella pneumoniae ATCC 10031 (KP-SEN), ancestor strain, sheet fig 2a) of the same substance?
**A.** 2 µg/mL

**Q.** And the MIC of ancestor ([3]; Klebsiella pneumoniae ATCC 700603 (KP-MDR), ancestor)?
**A.** 1 µg/mL

**Q.** What about the MIC of ancestor ([3]; Klebsiella pneumoniae ATCC 700603 (KP-MDR), ancestor strain, sheet fig 2a) of the same substance?
**A.** 1 µg/mL

**Q.** And the MIC of ancestor ([3]; ancestor KP-SEN (Klebsiella pneumoniae ATCC 10031))?
**A.** 2 µg/mL

**Q.** What about the MIC of ancestor ([4]; Acinetobacter baumannii ATCC 17978 (AB-SEN), ancestor strain, sheet fig 2a) of the same substance?
**A.** 1 µg/mL

**Q.** What about the MIC of ancestor ([4]; Acinetobacter baumannii ATCC BAA 1605 (AB-MDR), ancestor) of the same substance?
**A.** 1 µg/mL

**Q.** And the MIC of ancestor ([4]; Acinetobacter baumannii ATCC BAA 1605 (AB-MDR), ancestor strain, sheet fig 2a)?
**A.** 1 µg/mL

**Q.** What about the MIC of ancestor ([4]; ancestor AB-SEN (Acinetobacter baumannii ATCC 17978)) of the same substance?
**A.** 1 µg/mL

**Q.** What about the MIC of ancestor ([5]; E. coli ATCC 25922 (EC-SEN), ancestor strain, sheet fig 2a) of the same substance?
**A.** 1 µg/mL

**Q.** What about the MIC of ancestor ([5]; E. coli NCTC 13846 (EC-MDR), ancestor strain, sheet fig 2a) of the same substance?
**A.** 4 µg/mL

**Q.** And the MIC of ancestor ([5]; Escherichia coli NCTC 13846 (EC-MDR), ancestor)?
**A.** 4 µg/mL

**Q.** What about the MIC of ancestor ([5]; ancestor EC-SEN (Escherichia coli ATCC 25922)) of the same substance?
**A.** 1 µg/mL

**Q.** And the MIC of ancestor ([6]; P. aeruginosa ATCC BAA 3107 (PA-SEN), ancestor strain, sheet fig 2a)?
**A.** 1 µg/mL

**Q.** And the MIC of ancestor ([6]; P. aeruginosa LESB 58 (PA-MDR), ancestor strain, sheet fig 2a)?
**A.** 2 µg/mL

**Q.** What about the MIC of ancestor ([6]; Pseudomonas aeruginosa LESB 58 (PA-MDR), ancestor) of the same substance?
**A.** 2 µg/mL

**Q.** And the MIC of ancestor ([6]; ancestor PA-MDR (Pseudomonas aeruginosa LESB 58))?
**A.** 2 µg/mL

**Q.** And the MIC of ancestor ([6]; ancestor PA-SEN (Pseudomonas aeruginosa ATCC BAA 3107))?
**A.** 1 µg/mL
